In patent US20230014445A1, “ALLOSTERIC CHROMENONE INHIBITORS OF PHOSPHOINOSITIDE 3-KINASE (PI3K) FOR THE TREATMENT OF DISEASE” (Petra Pharma Corporation, priority 2021, published 2023):

What was measured:
[1] = molecular target: T1, human full length PIK3KA Wild-type (p110α/p85α complex) (Homo sapiens, UniProt P42336); assay: PI3K-Alpha Kinase (PIK3CA) biochemical activity, wild-type (ADP-Glo); details: 20 uM ATP
T1 construct: Recombinant, catalytically active human full length PIK3KA Wild-type and H1047R mutant were purchased; 6xHis (N); purchased EMD Millipore Sigma 14-602M
Summary of the method: (§1)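 ADP formation, measured by ADP-Glo luminescence after reaction to about 10% ATP conversion at 27° C., gives 10-point 4-parameter IC50 curves normalized to no-enzyme and DMSO controls. Lipid substrate was PIP2diC8 or Soy PI at 50 uM, with 20 uM ATP. WT or H1047R p110α/p85α complex (1-5 nM) was preincubated 1 h with compound.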

[2] = molecular target: T2, human full length PIK3KA H1047R mutant (p110α/p85α complex) (Homo sapiens, UniProt P42336, H1047R); assay: PI3K-Alpha Kinase (PIK3CA) biochemical activity, H1047R mutant (ADP-Glo); details: 20 uM ATP
T2 construct: Recombinant, catalytically active human full length PIK3KA Wild-type and H1047R mutant were purchased; 6xHis (N); purchased EMD Millipore Sigma 14-792M
T2 sequence (P42336 whole entry H1047R): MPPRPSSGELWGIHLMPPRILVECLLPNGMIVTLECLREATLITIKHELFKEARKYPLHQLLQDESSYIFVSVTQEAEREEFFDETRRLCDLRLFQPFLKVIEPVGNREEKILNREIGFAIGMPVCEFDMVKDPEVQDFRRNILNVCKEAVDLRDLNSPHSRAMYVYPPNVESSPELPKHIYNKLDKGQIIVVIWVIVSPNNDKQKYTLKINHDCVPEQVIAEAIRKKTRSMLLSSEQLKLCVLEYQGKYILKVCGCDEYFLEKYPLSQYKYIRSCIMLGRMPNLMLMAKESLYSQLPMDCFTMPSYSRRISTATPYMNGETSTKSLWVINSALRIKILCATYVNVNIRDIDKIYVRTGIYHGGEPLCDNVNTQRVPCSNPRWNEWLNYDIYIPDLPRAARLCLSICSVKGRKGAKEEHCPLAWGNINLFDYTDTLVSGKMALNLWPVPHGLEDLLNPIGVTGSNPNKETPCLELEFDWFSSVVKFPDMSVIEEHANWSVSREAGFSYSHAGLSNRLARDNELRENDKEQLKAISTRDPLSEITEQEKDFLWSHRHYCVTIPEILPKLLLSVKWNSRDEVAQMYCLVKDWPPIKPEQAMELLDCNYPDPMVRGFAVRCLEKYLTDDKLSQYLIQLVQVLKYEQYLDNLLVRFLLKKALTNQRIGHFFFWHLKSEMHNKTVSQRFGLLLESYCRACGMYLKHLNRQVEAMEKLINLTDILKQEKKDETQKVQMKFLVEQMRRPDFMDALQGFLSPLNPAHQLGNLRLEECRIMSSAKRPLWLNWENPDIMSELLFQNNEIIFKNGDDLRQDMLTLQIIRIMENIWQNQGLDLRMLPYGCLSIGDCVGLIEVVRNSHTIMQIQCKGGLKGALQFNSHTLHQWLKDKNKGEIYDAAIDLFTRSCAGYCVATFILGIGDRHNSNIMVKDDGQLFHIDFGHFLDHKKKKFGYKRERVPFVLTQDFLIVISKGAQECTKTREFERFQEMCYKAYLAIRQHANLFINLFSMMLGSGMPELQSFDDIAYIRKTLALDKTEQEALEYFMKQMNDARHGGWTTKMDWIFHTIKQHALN
T2 sequence (P27986 whole entry partner): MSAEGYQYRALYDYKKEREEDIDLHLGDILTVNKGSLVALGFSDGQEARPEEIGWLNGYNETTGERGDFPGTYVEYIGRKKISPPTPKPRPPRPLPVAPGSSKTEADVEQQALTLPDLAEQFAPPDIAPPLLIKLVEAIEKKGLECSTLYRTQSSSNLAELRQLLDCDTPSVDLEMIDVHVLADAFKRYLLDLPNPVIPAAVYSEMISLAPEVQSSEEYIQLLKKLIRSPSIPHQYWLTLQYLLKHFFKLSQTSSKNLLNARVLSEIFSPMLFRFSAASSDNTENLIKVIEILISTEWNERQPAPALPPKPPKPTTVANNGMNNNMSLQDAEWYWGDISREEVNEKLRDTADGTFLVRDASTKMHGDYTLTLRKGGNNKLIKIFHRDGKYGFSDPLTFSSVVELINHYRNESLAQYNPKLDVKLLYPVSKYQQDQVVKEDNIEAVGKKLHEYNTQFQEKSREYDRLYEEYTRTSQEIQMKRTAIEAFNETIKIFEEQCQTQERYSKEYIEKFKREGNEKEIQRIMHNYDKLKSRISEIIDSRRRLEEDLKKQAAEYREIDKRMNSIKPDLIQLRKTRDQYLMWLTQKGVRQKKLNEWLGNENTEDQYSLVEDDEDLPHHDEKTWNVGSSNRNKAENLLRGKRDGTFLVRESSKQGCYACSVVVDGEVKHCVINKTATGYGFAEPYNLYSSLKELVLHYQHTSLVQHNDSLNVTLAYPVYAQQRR
Summary of the method: as §1

[3] = molecular target: PI3K-α (PIK3CA) in MDA-MB-453 cells (Homo sapiens, UniProt P42336); assay: PI3K-Alpha Kinase (PIK3CA) activity in vitro cell based assay (AlphaLisa SureFire); details: 0% FBS, 3 hours treatment, read-out: PI3K-α (PIK3CA) in vitro cell based assay IC50
PI3K-α (PIK3CA) in MDA-MB-453 cells, sequence (P42336 whole entry): as the sequence (P42336 whole entry H1047R) above, with R1047H counted along it
PI3K-α (PIK3CA) in MDA-MB-453 cells, sequence (P27986 2-724, further chain): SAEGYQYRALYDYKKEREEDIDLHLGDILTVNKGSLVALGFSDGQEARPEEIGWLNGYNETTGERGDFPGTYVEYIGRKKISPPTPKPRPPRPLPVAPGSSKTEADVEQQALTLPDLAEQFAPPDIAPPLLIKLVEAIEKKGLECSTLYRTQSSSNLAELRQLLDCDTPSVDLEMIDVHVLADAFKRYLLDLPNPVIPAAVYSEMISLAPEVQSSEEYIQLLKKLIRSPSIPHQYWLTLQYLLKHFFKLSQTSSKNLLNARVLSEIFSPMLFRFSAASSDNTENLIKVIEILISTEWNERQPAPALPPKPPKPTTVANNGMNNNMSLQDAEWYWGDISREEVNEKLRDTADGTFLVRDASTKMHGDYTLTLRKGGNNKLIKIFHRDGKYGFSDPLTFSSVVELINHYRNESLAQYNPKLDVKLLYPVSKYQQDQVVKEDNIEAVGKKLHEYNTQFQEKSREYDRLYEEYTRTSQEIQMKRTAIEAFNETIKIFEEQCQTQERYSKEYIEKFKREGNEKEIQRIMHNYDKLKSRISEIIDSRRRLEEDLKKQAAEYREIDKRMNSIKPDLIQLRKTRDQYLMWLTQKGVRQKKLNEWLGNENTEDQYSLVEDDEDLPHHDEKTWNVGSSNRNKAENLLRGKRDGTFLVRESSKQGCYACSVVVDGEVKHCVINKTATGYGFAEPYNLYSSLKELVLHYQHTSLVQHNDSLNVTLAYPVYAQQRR
Method: PI3K-Alpha Kinase (PIK3CA) Activity In Vitro Cell Based Assay and Determining IC50 Values for Inhibitors
The MDA-MB-453 (ATCC-HTB-131) cell line was obtained from the American Type Culture Collection (Manassas, Va.). Cells were maintained in Dulbecco's Modified Eagle Media (DMVEM, Gibco 11965-092) supplemented with 10% Fetal Bovine Serum, heat inactivated (FBS HI, Gibco 10082-147), 1× non-essential amino acids (NEAA, Gibco 11140-050), and 1 mM sodium pyruvate (Gibco 11360-070). Cultures were maintained in a humidified incubator at 37° C. under […].
For compound testing in 0% FBS, MDA-MB-453 cells were seeded at a density of 1.5×10^4 cells per well in white 384-well plates in 20 μl of Minimum Essential Media (MEM) assay media with 1×NEAA, 1 mM sodium pyruvate, and 1 μg/mL human insulin (Sigma I9278). Compounds dissolved in 10 mM stock solutions in DMSO were serially diluted 1:3 in DMSO to generate a 10-point dilution series and plated using an acoustic liquid handler system (Echo 550 Series Liquid Handler, Labcyte). A 5× intermediate compound dilution plate in MEM with 1×NEAA and 1 mM sodium pyruvate (150 μM starting compound concentration in 1.5% DMSO) was then prepared. Five μl of the intermediate serially diluted compounds were added to the cell plate to final concentrations ranging from […] in 0.3% DMSO. 0.3% DMSO alone was used to establish the maximum (MAX) signal and GDC-0032 at a final concentration of 1 μM was used as a reference compound for the minimum (MIN) signal. After 3 hours treatment, the medium was removed, and the cells lysed in 10 μL of 1× SureFire Lysis buffer with shaking for 10 minutes at room temperature. The Acceptor Mix (Reaction Buffer 1+Reaction Buffer 2+Activation Buffer+SureFire Ultra Acceptor Beads) was prepared by diluting Activation buffer 25-fold in combined Reaction Buffer 1 and Reaction Buffer 2. The Acceptor beads were diluted 50-fold in the combined Reaction Buffers. Five μL of Acceptor Mix was added to each well, the plate was sealed and covered with foil and incubated for 1 hour at room temperature. The Donor Mix (dilution buffer+SureFire Ultra Donor Beads) was prepared by diluting Donor Beads 50-fold in dilution buffer. Five μL of the Donor Mix was added to each well and the plate sealed and covered with foil and incubated for 1 hour at room temperature in the dark. The plates were read on a Neo2 plate reader instrument from Biotek using standard AlphaLisa settings.
Compounds were tested in duplicate and the average % inhibition at each compound concentration was used to generate a single dose response curve. The data were processed using the Genedata-Screener tool. Relative IC50 values were determined using luminescence units by calculating percent inhibition with respect to the in-plate “MIN” (GDC-0032 reference control) and “MAX” (DMSO) controls. The data was analyzed using a 4-parameter nonlinear logistic equation (four-parameter logistic concentration-response curve):
Y=bottom+[(top−bottom)/1+(X/IC50)slope]
where Y=% inhibition, X=concentration of inhibitor, bottom=minimum value of y attained by curve-fit, top=maximum value of y attained by curve-fit and slope=steepness of curve at the IC50.
% Inhibition=[(signal at X−median Min)/(median Max−median Min)]×100
IC50: concentration of compound that reduces a given response (ligand binding, enzyme response) by 50%. Relative IC50: concentration giving half the compound's maximum response.
For IC50 values shown in Table B, “A” means IC50<50 nM; “B” means IC50 ranging between 50 nM and 100 nM; “C” means IC50 ranging between 100 nM and 500 nM; “D” means IC50>500 nM.

Structure (SMILES) | IC50 ([1]; Soy PI lipid substrate) | IC50 ([2]; Soy PI lipid substrate) | IC50 [3] | IC50 ([1]; PIP2diC8 lipid substrate) | IC50 ([2]; PIP2diC8 lipid substrate)
Cc1cc(C(C)Nc2ccccc2C(=O)O)c2oc(-c3ccc(F)nc3)cc(=O)c2c1 (single isomer, unassigned; isomer 1) [Example 35, 2-[1-[2-(6-Fluoro-3-pyridyl)-6-methyl-4-oxo-chromen-8-yl]ethylamino]benzoic acid, Isomer 1] | > 10000 nM | > 10000 nM | > 500 nM | – | –
Cc1cc(C(C)Nc2ccccc2C(=O)O)c2oc(-c3ccc(C(F)(F)F)nc3)cc(=O)c2c1 (single isomer, unassigned; isomer 1) [Example 37, 2-[1-[6-Methyl-4-oxo-2-[6-(trifluoromethyl)-3-pyridyl]chromen-8-yl]ethylamino]benzoic acid, Isomer 1] | > 10000 nM | > 10000 nM | > 500 nM | – | –
Cc1cc(C(C)Nc2ccccc2C(=O)O)c2oc(-c3ccc(S(C)(=O)=O)nc3)cc(=O)c2c1 (single isomer, unassigned; isomer 1) [Example 39, 2-[1-[6-Methyl-2-(6-methylsulfonyl-3-pyridyl)-4-oxo-chromen-8-yl]ethylamino]benzoic acid, Isomer 1] | > 10000 nM | > 10000 nM | > 500 nM | – | –
Cc1cc(C(C)Nc2ccccc2C(=O)O)c2oc(-c3cnc(OC(C)C)nc3)cc(=O)c2c1 (single isomer, unassigned; isomer 1) [Example 41, 2-[1-[2-(2-Isopropoxypyrimidin-5-yl)-6-methyl-4-oxo-chromen-8-yl]ethylamino]benzoic acid, Isomer 1] | > 10000 nM | > 10000 nM | > 500 nM | – | –
Cc1cc(C(C)Nc2ccccc2C(=O)O)c2oc(-c3cnn(-c4cccnc4)c3)cc(=O)c2c1 (single isomer, unassigned; isomer 1) [Example 49, 2-[1-[6-Methyl-4-oxo-2-[1-(3-pyridyl)pyrazol-4-yl]chromen-8-yl]ethylamino]benzoic acid, Isomer 1] | > 10000 nM | > 10000 nM | > 500 nM | – | –
Cc1cc(C(C)Nc2ccc(Cl)nc2C(=O)O)c2oc(-c3ccccn3)c(C)c(=O)c2c1 (single isomer, unassigned; isomer 1) [Example 60, 6-Chloro-3-[1-[3,6-dimethyl-4-oxo-2-(2-pyridyl)chromen-8-yl]ethylamino]pyridine-2-carboxylic acid, Isomer 1] | 500 to 1000 nM | < 500 nM | < 50 nM | – | –
Cc1cc(C(C)Nc2cccc(F)c2C(=O)O)c2oc(-c3cnn(-c4ccc(C#N)cc4)c3)cc(=O)c2c1 (single isomer, unassigned; isomer 1) [Example 112, 2-[1-[2-[1-(4-Cyanophenyl)pyrazol-4-yl]-6-methyl-4-oxo-chromen-8-yl]ethylamino]-6-fluoro-benzoic acid, Isomer 1] | > 10000 nM | 5000 to 10000 nM | > 500 nM | – | –
Cc1cc(C(C)Nc2ccc(F)c(F)c2C(=O)O)c2oc(-c3cnn(-c4ccc(C#N)cc4)c3)cc(=O)c2c1 (single isomer, unassigned; isomer 1) [Example 114, 6-[1-[2-[1-(4-Cyanophenyl)pyrazol-4-yl]-6-methyl-4-oxo-chromen-8-yl]ethylamino]-2,3-difluoro-benzoic acid, Isomer 1] | 5000 to 10000 nM | 1000 to 5000 nM | > 500 nM | – | –

Further lines, results first:

IC50 ([1]; Soy PI lipid substrate) | IC50 ([2]; Soy PI lipid substrate) | IC50 [3] | IC50 ([1]; PIP2diC8 lipid substrate) | IC50 ([2]; PIP2diC8 lipid substrate) | Structure (SMILES)
1000 to 5000 nM | < 500 nM | < 50 nM | – | – | Cc1cc(C(C)Nc2ccccc2C(=O)O)c2oc(-c3ccccn3)c(C)c(=O)c2c1 (single isomer, unassigned; isomer 1) [Example 24, 2-[1-[3,6-Dimethyl-4-oxo-2-(2-pyridyl)chromen-8-yl]ethylamino]benzoic acid, Isomer 1]
500 to 1000 nM | < 500 nM | < 50 nM | – | – | Cc1cc(C(C)Nc2ccccc2C(=O)O)c2oc(-c3cccnc3)c(C)c(=O)c2c1 (single isomer, unassigned; isomer 1) [Example 25, 2-[1-[3,6-Dimethyl-4-oxo-2-(3-pyridyl)chromen-8-yl]ethylamino]benzoic acid, Isomer 1]
– | – | > 500 nM | > 10000 nM | 5000 to 10000 nM | Cc1cc(C(C)Nc2ccccc2C(=O)O)c2oc(-c3ccc(OC(C)C)nc3)cc(=O)c2c1 (single isomer, unassigned; isomer 1) [Example 30, 2-[1-[2-(6-Isopropoxy-3-pyridyl)-6-methyl-4-oxo-chromen-8-yl]ethylamino]benzoic acid, Isomer 1]
500 to 1000 nM | < 500 nM | < 50 nM | – | – | Cc1cc(C(C)Nc2ccccc2C(=O)O)c2oc(-c3cncc(F)c3)c(C)c(=O)c2c1 (single isomer, unassigned; isomer 1) [Example 45, 2-[1-[2-(5-Fluoro-3-pyridyl)-3,6-dimethyl-4-oxo-chromen-8-yl]ethylamino]benzoic acid, Isomer 1]
500 to 1000 nM | < 500 nM | < 50 nM | – | – | Cc1c(-c2ccccn2)oc2c(C(C)Nc3ccc(Cl)nc3C(=O)O)cc(C(F)(F)F)cc2c1=O (single isomer, unassigned; isomer 1) [Example 61, 6-Chloro-3-[1-[3-methyl-4-oxo-2-(2-pyridyl)-6-(trifluoromethyl)chromen-8-yl]ethylamino]pyridine-2-carboxylic acid, Isomer 1]
5000 to 10000 nM | < 500 nM | 50 to 100 nM | – | – | CC(Nc1ccccc1C(=O)O)c1cc(C(F)(F)F)cc2c(=O)cc(-c3ccccn3)oc12 (single isomer, unassigned; isomer 1) [Example 76, 2-[1-[4-Oxo-2-(2-pyridyl)-6-(trifluoromethyl)chromen-8-yl]ethylamino]benzoic acid, Isomer 1]
1000 to 5000 nM | < 500 nM | < 50 nM | – | – | Cc1c(-c2cncc(F)c2)oc2c(C(C)Nc3ccc(Cl)nc3C(=O)O)cc(C(F)(F)F)cc2c1=O (single isomer, unassigned; isomer 1) [Example 97, 6-Chloro-3-[1-[2-(5-fluoro-3-pyridyl)-3-methyl-4-oxo-6-(trifluoromethyl)chromen-8-yl]ethylamino]pyridine-2-carboxylic acid, Isomer 1]
1000 to 5000 nM | < 500 nM | 100 to 500 nM | – | – | Cc1cc(C(C)Nc2cccc(F)c2C(=O)O)c2oc(-c3ccccn3)cc(=O)c2c1 (single isomer, unassigned; isomer 1) [Example 110, 2-Fluoro-6-[1-[6-methyl-4-oxo-2-(2-pyridyl)chromen-8-yl]ethylamino]benzoic acid, Isomer 1]
500 to 1000 nM | < 500 nM | < 50 nM | – | – | Cc1cc(C(C)Nc2ccc(Cl)nc2C(=O)O)c2oc(-c3cccnc3)c(C)c(=O)c2c1 (single isomer, unassigned; isomer 1) [Example 115, 6-Chloro-3-[1-[3,6-dimethyl-4-oxo-2-(3-pyridyl)chromen-8-yl]ethylamino]pyridine-2-carboxylic acid, Isomer 1]
